Source: ChEMBL document CHEMBL1157685, “Biotransformation of isoimperatorin and imperatorin by Glomerella cingulata and beta-secretase inhibitory activity” (Bioorg Med Chem, 2010)
The source made the active and inactive calls. No cut-off for these calls is given here.

How the values were obtained:
Beta-secretase 1 [1] = molecular target: T1, Beta-secretase 1 (Homo sapiens, UniProt P56817); experiment: Inhibition of human recombinant BACE1 at 100 to 500 uM after 60 mins by fluorescence assay
Beta-secretase 1 [2] = molecular target: T1, Beta-secretase 1; experiment: Inhibition of human recombinant BACE1 after 60 mins by fluorescence assay
Beta-secretase 1 [3] = molecular target: T1, Beta-secretase 1
Description: Competitive inhibition of human recombinant BACE1 by Lineweaver-Burke plot analysis

T1 sequence (P56817 whole entry): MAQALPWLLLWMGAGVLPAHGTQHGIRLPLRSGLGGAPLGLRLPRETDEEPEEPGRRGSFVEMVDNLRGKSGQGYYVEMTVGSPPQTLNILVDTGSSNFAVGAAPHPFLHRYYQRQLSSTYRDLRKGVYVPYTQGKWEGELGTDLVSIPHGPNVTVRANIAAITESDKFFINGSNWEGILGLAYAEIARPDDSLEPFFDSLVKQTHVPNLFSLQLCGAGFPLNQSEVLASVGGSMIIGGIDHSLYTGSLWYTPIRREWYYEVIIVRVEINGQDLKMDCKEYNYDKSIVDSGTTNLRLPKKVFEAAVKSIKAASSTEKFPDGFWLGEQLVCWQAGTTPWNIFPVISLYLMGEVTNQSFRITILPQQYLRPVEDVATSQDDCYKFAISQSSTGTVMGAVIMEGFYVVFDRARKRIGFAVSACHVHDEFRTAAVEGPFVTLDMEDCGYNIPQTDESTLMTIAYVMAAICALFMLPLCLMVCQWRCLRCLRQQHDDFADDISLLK

## O=c1ccc2cc3ccoc3c(O)c2o1
Beta-secretase 1 [1]
  inhibition: inactive
Beta-secretase 1 [2]
  inhibition: Dose-dependent effect

## CC(C)=CCOc1c2ccoc2cc2oc(=O)ccc12 [ISOIMPERATORIN]
Beta-secretase 1 [2]
  IC50: 244 µM
  inhibition: Dose-dependent effect

## COC(=O)CCc1c(OC)cc2occc2c1OCC=C(C)C
Beta-secretase 1 [2]
  IC50: 16.2 µM
  inhibition: Dose-dependent effect

## CC(C)=CCOc1c2occc2cc2ccc(=O)oc12 [PENTOSALEN]
Beta-secretase 1 [2]
  IC50: 91.8 µM
  inhibition: Dose-dependent effect

## CC(C)=CCOc1c(CCC(=O)O)c(O)cc2occc12
Beta-secretase 1 [2]
  IC50: 186 µM
  inhibition: Dose-dependent effect

## COc1cc2occc2c(OCC=C(C)C)c1CCC(=O)O
Beta-secretase 1 [2]
  IC50: 203 µM
  inhibition: Dose-dependent effect

## COC(=O)CCc1c(O)cc2occc2c1OCC=C(C)C
Beta-secretase 1 [3]
  Kic: 11.3 µM
Beta-secretase 1 [2]
  IC50: 30.5 µM
  inhibition: Dose-dependent effect
